# Test results reported in ChEMBL document CHEMBL1759870, “Identification, structural properties and chelating capacity of miltipolone as a broad-spectrum inhibitor to cancer cells” (Eur J Med Chem, 2011).
# pIC50: −log10 of the molar value. Calls of active or inactive are those of the source. The calls are words filed in the database; no cut-off is given here.
# Columns and labels:
# HepG2 [1] = test: Antiproliferative activity against human HepG2 cells at 2 uM after 96 hrs by MTT assay in presence of ferric ion; format: functional, cell-based
# NCI-N87 [2] = test: Antiproliferative activity against human NCI-N87 cells at 2 uM after 96 hrs by MTT assay in presence of zinc ion; format: functional, cell-based
# HeLa [3] = test: Antiproliferative activity against human HeLa cells at 2 uM after 96 hrs by MTT assay in presence of ferrous ion; format: functional, cell-based
# MCF7 [4] = test: Antiproliferative activity against human MCF7 cells at 2 uM after 96 hrs by MTT assay in presence of zinc ion; format: functional, cell-based
# HT-1080 [5] = test: Antiproliferative activity against human HT1080 cells at 2 uM after 96 hrs by MTT assay in presence of manganese ion; format: functional, cell-based
# Jurkat [6] = test: Antiproliferative activity against human Jurkat cells at 2 uM after 96 hrs by MTT assay in presence of 1 uM of ferrous ion; format: functional, cell-based
# A-375 [7] = test: Antiproliferative activity against human A375 cells at 2 uM after 96 hrs by MTT assay in presence of ferrous ion; format: functional, cell-based
# A-375 [8] = test: Antiproliferative activity against human A375 cells after 96 hrs by MTT assay; format: functional, cell-based; settings: A-375, 96 h
# Bel-7402 [9] = test: Antiproliferative activity against human Bel7402 cells at 2 uM after 96 hrs by MTT assay in presence of manganese ion; format: functional, cell-based
# PANC-1 [10] = test: Antiproliferative activity against human PANC1 cells at 2 uM after 96 hrs by MTT assay in presence of manganese ion; format: functional, cell-based
# Jurkat [11] = test: Antiproliferative activity against human Jurkat cells at 2 uM after 96 hrs by MTT assay in presence of manganese ion; format: functional, cell-based
# PANC-1 [12] = test: Antiproliferative activity against human PANC1 cells at 2 uM after 96 hrs by MTT assay in presence of ferrous ion; format: functional, cell-based
# Jurkat [13] = test: Antiproliferative activity against human Jurkat cells after 96 hrs by MTT assay; format: functional, cell-based
# NCI-N87 [14] = test: Antiproliferative activity against human NCI-N87 cells at 2 uM after 96 hrs by MTT assay in presence of 1 uM of ferrous ion; format: functional, cell-based
# A-375 [15] = test: Antiproliferative activity against human A375 cells at 2 uM after 96 hrs by MTT assay in presence of ferric ion; format: functional, cell-based
# HeLa [16] = test: Antiproliferative activity against human HeLa cells at 2 uM after 96 hrs by MTT assay in presence of ferric ion; format: functional, cell-based
# NCI-N87 [17] = test: Antiproliferative activity against human NCI-N87 cells at 2 uM after 96 hrs by MTT assay in presence of ferric ion; format: functional, cell-based
# PANC-1 [18] = test: Antiproliferative activity against human PANC1 cells at 2 uM after 96 hrs by MTT assay in presence of 1 uM of ferrous ion; format: functional, cell-based
# HT-1080 [19] = test: Antiproliferative activity against human HT1080 cells at 2 uM after 96 hrs by MTT assay in presence of zinc ion; format: functional, cell-based
# HeLa [20] = test: Antiproliferative activity against human HeLa cells after 96 hrs by MTT assay; format: functional, cell-based
# HeLa [21] = test: Antiproliferative activity against human HeLa cells at 2 uM after 96 hrs by MTT assay in presence of cobalt ion; format: functional, cell-based
# Bel-7402 [22] = test: Antiproliferative activity against human Bel7402 cells at 2 uM after 96 hrs by MTT assay in presence of ferrous ion; format: functional, cell-based
# HT-1080 [23] = test: Antiproliferative activity against human HT1080 cells at 2 uM after 96 hrs by MTT assay in presence of cobalt ion; format: functional, cell-based
# A549 [24] = test: Antiproliferative activity against human A549 cells at 2 uM after 96 hrs by MTT assay in presence of zinc ion; format: functional, cell-based
# Bel-7402 [25] = test: Antiproliferative activity against human Bel7402 cells at 2 uM after 96 hrs by MTT assay in presence of zinc ion; format: functional, cell-based
# HepG2 [26] = test: Antiproliferative activity against human HepG2 cells after 96 hrs by MTT assay; format: functional, cell-based; settings: HepG2, 96 h
# [27] = Metal chelating activity of the compound assessed as ferrous ion complex formation in doble-distiled water by UV-vis spectrometry; format: functional
# NCI-N87 [28] = test: Antiproliferative activity against human NCI-N87 cells at 2 uM after 96 hrs by MTT assay in presence of ferrous ion; format: functional, cell-based
# NCI-N87 [29] = test: Antiproliferative activity against human NCI-N87 cells after 96 hrs by MTT assay; format: functional, cell-based; settings: NCI-N87, 96 h
# PANC-1 [30] = test: Antiproliferative activity against human PANC1 cells at 2 uM after 96 hrs by MTT assay in presence of zinc ion; format: functional, cell-based
# PANC-1 [31] = test: Antiproliferative activity against human PANC1 cells after 96 hrs by MTT assay; format: functional, cell-based; settings: PANC-1, 96 h
# Jurkat [32] = test: Antiproliferative activity against human Jurkat cells at 2 uM after 96 hrs by MTT assay in presence of zinc ion; format: functional, cell-based
# Bel-7402 [33] = test: Antiproliferative activity against human Bel7402 cells at 2 uM after 96 hrs by MTT assay in presence of ferric ion; format: functional, cell-based
# A-375 [34] = test: Antiproliferative activity against human A375 cells at 2 uM after 96 hrs by MTT assay in presence of zinc ion; format: functional, cell-based
# MCF7 [35] = test: Antiproliferative activity against human MCF7 cells at 2 uM after 96 hrs by MTT assay in presence of ferrous ion; format: functional, cell-based
# A549 [36] = test: Antiproliferative activity against human A549 cells at 2 uM after 96 hrs by MTT assay in presence of ferrous ion; format: functional, cell-based
# NCI-N87 [37] = test: Antiproliferative activity against human NCI-N87 cells at 2 uM after 96 hrs by MTT assay in presence of cobalt ion; format: functional, cell-based
# [38] = Metal chelating activity of the compound assessed as ferric ion complex formation in doble-distiled water by UV-vis spectrometry; format: functional
# [39] = Metal chelating activity of the compound assessed as cobalt complex formation in doble-distiled water by UV-vis spectrometry; format: functional
# Bel-7402 [40] = test: Antiproliferative activity against human Bel7402 cells after 96 hrs by MTT assay; format: functional, cell-based; settings: Bel-7402, 96 h
# A549 [41] = test: Antiproliferative activity against human A549 cells at 2 uM after 96 hrs by MTT assay in presence of ferric ion; format: functional, cell-based
# MCF7 [42] = test: Antiproliferative activity against human MCF7 cells at 2 uM after 96 hrs by MTT assay in presence of ferric ion; format: functional, cell-based
# MCF7 [43] = test: Antiproliferative activity against human MCF7 cells at 2 uM after 96 hrs by MTT assay in presence of manganese ion; format: functional, cell-based
# HT-1080 [44] = test: Antiproliferative activity against human HT1080 cells at 2 uM after 96 hrs by MTT assay in presence of 1 uM of ferrous ion; format: functional, cell-based
# HepG2 [45] = test: Antiproliferative activity against human HepG2 cells at 2 uM after 96 hrs by MTT assay in presence of manganese ion; format: functional, cell-based
# HeLa [46] = test: Antiproliferative activity against human HeLa cells at 2 uM after 96 hrs by MTT assay in presence of manganese ion; format: functional, cell-based
# Bel-7402 [47] = test: Antiproliferative activity against human Bel7402 cells at 2 uM after 96 hrs by MTT assay in presence of cobalt ion; format: functional, cell-based
# [48] = Metal chelating activity of the compound assessed as zinc complex formation in doble-distiled water by UV-vis spectrometry; format: functional
# HeLa [49] = test: Antiproliferative activity against human HeLa cells at 2 uM after 96 hrs by MTT assay in presence of zinc ion; format: functional, cell-based
structure (smiles),measurement,setting,value
Cc1cc2c(cc(O)c1=O)[C@@]13CCCC(C)(C)[C@@H]1C[C@@H]2OC3 [MILTIPOLONE],Activity,HepG2 [1],Active
same,Activity,NCI-N87 [2],Active
same,Activity,HeLa [3],inactive
same,Activity,MCF7 [4],Active
same,Activity,HT-1080 [5],Active
same,Activity,Jurkat [6],inactive
same,Activity,A-375 [7],inactive
same,pIC50,A-375 [8],5.46
same,Activity,Bel-7402 [9],Active
same,Activity,PANC-1 [10],Active
same,Activity,Jurkat [11],Active
same,Activity,PANC-1 [12],inactive
same,pIC50,Jurkat [13],5.85
same,Activity,NCI-N87 [14],inactive
same,Activity,A-375 [15],Active
same,Activity,HeLa [16],Active
same,Activity,NCI-N87 [17],Active
same,Activity,PANC-1 [18],inactive
same,Activity,HT-1080 [19],Active
same,pIC50,HeLa [20],5.84
same,Activity,HeLa [21],Active
same,Activity,Bel-7402 [22],inactive
same,Activity,HT-1080 [23],Active
same,Activity,A549 [24],Active
same,Activity,Bel-7402 [25],Active
same,pIC50,HepG2 [26],5.70
same,Activity,[27],Active
same,Activity,NCI-N87 [28],inactive
same,pIC50,NCI-N87 [29],5.80
same,Activity,PANC-1 [30],Active
same,pIC50,PANC-1 [31],5.23
same,Activity,Jurkat [32],Active
same,Activity,Bel-7402 [33],Active
same,Activity,A-375 [34],Active
same,Activity,MCF7 [35],inactive
same,Activity,A549 [36],inactive
same,Activity,NCI-N87 [37],Active
same,Activity,[38],Active
same,Activity,[39],Active
same,pIC50,Bel-7402 [40],6.05
same,Activity,A549 [41],Active
same,Activity,MCF7 [42],Active
same,Activity,MCF7 [43],Active
same,Activity,HT-1080 [44],inactive
same,Activity,HepG2 [45],Active
same,Activity,HeLa [46],Active
same,Activity,Bel-7402 [47],Active
same,Activity,[48],Active
same,Activity,HeLa [49],Active
